# Measurements reported in patent publication US20260183276A1, “miRNA DYSREGULATION CORRECTION AS A STRATEGY TO TREAT HUNTINGTON'S DISEASE” (The Chinese University of Hong Kong, priority 2022, published 2026).
# Entries after “also recorded” stand apart in the source; their conditions may differ.
# How the values were obtained:
# [1] = system: TAK1-MKK4-JNK pro-apoptotic signaling in PAPD5-overexpressing cells; test: Western blotting of TAK1-MKK4-JNK caspase cascade, PAPD5-overexpressing cells; format: cell-based
# Experimental: (§1) SK-N-MC cells (ATCC) were cultured in DMEM (GE Healthcare BioSciences) supplemented with 10% fetal bovine serum and 1% penicillin-streptomycin. Cells were maintained in a 37° C. humidified cell culture incubator supplemented with 5% CO2. Plasmid DNA and siRNA/synthetic miRNA transfection was performed using Lipofectamine 2000 (Thermo Fisher Scientific) and Lipofectamine RNAiMAX (Thermo Fisher Scientific), respectively.
# (§2) Proteins were extracted from SK-N-MC cells or mouse primary cortical neurons using SDS sample buffer. For protein extraction from mice, half of the brain was homogenized in protein lysis buffer (50 mM Tris-HCl, pH 7.6, 150 mM NaCl, 10% NP40, 5% sodium deoxycholate). All protein samples were boiled at 99° C. for 10 minutes, prior to Western blotting. Primary antibodies used were anti-PAPD5 (PA5-46747, 1:1,000) from Invitrogen; anti-p-TAK1 (4536, 1:1,000), anti-t-TAK1 (4505, 1:2,000), anti-p-MKK4 (9156, 1:1,000), anti-t-MKK4 (9152, 1:2,000), anti-p-MKK7 (4171, 1:1,000), anti-t-MKK7 (4172, 1:2,000), anti-p-JNK (9251, 1:2,000), anti-t-JNK (9252, 1:2,000), anti-TAB1 (3226, 1:2,000), anti-TAB2 (3745, 1:2,000), anti-cleaved caspase 3 (9664, 1:500) and anti-myc (2276, 1:2,000) from Cell Signaling Technology; antipolyQ (P1874, 1:1,000) and anti-HA (H3663, 1:2,000) from Sigma-Aldrich; anti-YY1 (ab109237, 1:2000) and anti-β-tubulin (ab6046, 1:2,000) from Abcam, and anti-GFP (JL-8, 1:4,000) from Clontech. Secondary antibodies used were goat anti-rabbit (11035-045, 1:5,000) and goat anti-mouse (115-035-062, 1:5,000) from Jackson ImmunoResearch.
# [2] = system: TAK1-MKK4-JNK pro-apoptotic signaling in EGFPCAG78-expressing cells; test: Western blotting of TAK1-MKK4-JNK caspase cascade, EGFPCAG78-expressing cells; format: cell-based; conditions: for TAB2 expression / TAB1 expression / TAK1-triggered cell death: EGFPCAG78-transfected cells; for EGFPCAG78-induced TAK1 functional deregulation: FIG. 9B; for TAK1-triggered cell death: FIG. 9A
# Experimental: as §1, §2
# [3] = system: TAK1-MKK4-JNK pro-apoptotic signaling in EGFP-Htt1-550CAG89-expressing cells; test: Western blotting of TAK1-MKK4-JNK caspase cascade, EGFP-Htt1-550CAG89-expressing SK-N-MC cells; format: cell-based
# Experimental: as §1, §2
# [4] = system: EGFP-Htt1-550CAG89-expressing SK-N-MC cells; test: LDH cell death assay, EGFP-Htt1-550CAG89-expressing SK-N-MC cells; format: cell-based
# Experimental: as §1
# (§3) The LDH assay on SK-N-MC cells were performed according to manufacturer's instructions (CytoTox 96 Non-Radioactive Cytotoxicity Assay Kit, Promega).
# [5] = system: EGFPCAG78-expressing SK-N-MC cells; test: LDH cell death assay, EGFPCAG78-expressing SK-N-MC cells; format: cell-based
# Experimental: as §1, §3
# [6] = system: PAPD5-overexpressing cells; test: LDH cell death assay, PAPD5-overexpressing cells; format: cell-based; conditions: PAPD5 overexpression
# Experimental: as §1, §3
# A-beta peptide toxicity = test: A-beta1-42 peptide transgenic Drosophila model of Alzheimer's Disease; format: in vivo; conditions: A-beta1-42 transgenic Drosophila
molecule,measurement,setting,value
COc1cc(O)c2c(c1)/C=C/C[C@H](O)[C@H](O)C(=O)/C=C\C[C@H](C)OC2=O [5Z-7-oxozeaenol],TAK1/MKK4/JNK phosphorylation,[1],dose-dependent decrease
same,caspase 3 cleavage,[1],dose-dependent decrease
same,"TAK1-MKK4-JNK pro-apoptotic signaling (phosphorylation of TAK1, MKK4, JNK, caspase 3 cleavage)",[2]; EGFPCAG78-expressing cells,suppressed
same,caspase 3 cleavage,[3],rescued
same,"phosphorylation levels of TAK1, MKK4 and JNK",[3],rescued
same,EGFP-Htt1-550CAG89-induced cell death,[4],rescued
same,mutant CAG RNA (EGFPCAG78)-induced cell death,[5],rescued
same,PAPD5-induced cell death,[6],suppressed
COCCCOc1cc2c(cc1OC)-c1cc(=O)c(C(=O)O)cn1[C@H](C(C)C)C2 [RG7834],A-beta peptide toxicity (retinal degeneration),A-beta peptide toxicity,capable of suppressing
"miR-7-5p: miRNA (IDT), SEQ ID NO: 15, predicted to target TAB2",TAB2 expression,[2],capable of silencing
same,EGFPCAG78-induced TAK1 functional deregulation,[2],inhibiting
"miR-10a-5p: miRNA (IDT), SEQ ID NO: 10, predicted to target TAB1 (UACCCUGUAGAUCCGAAUUUGUG; listed as RNA, chemistry not given here)",TAB1 expression,[2],able to silence
same,TAK1-triggered cell death,[2],inhibit
"miR-22-5p: miRNA (IDT), SEQ ID NO: 14, predicted to target TAB2 (AGUUCUUCAGUGGCAAGCUUUA; listed as RNA, chemistry not given here)",TAB2 expression,[2],capable of silencing
same,EGFPCAG78-induced TAK1 functional deregulation,[2],inhibiting
"miR-331-3p: miRNA (IDT), SEQ ID NO: 12, predicted to target TAB1 (GCCCCUGGGCCUAUCCUAGAA; listed as RNA, chemistry not given here)",TAB1 expression,[2],able to silence
same,TAK1-triggered cell death,[2],inhibit
"miR-504: miRNA targeting TAB1, expressed from construct pRI-CMV/GFP-miR-504 (mimic sequence SEQ ID NO: 3) (GACCCTGGTCTGCACTCTATC; listed as DNA, chemistry not fully specified)","phosphorylation of TAK1 and JNK, and cleavage of caspase 3","[2]; EGFPCAG78-expressing cells, miRNA overexpression",suppressed
same,TAB1 expression,[2],most robust gene-silencing effects; also recorded: reduced
same,caspase 3 cleavage,[3],rescued
same,"phosphorylation levels of TAK1, MKK4 and JNK",[3],rescued
same,EGFP-Htt1-550CAG89-induced cell death,[4],rescued
same,mutant CAG RNA (EGFPCAG78)-induced cell death,[5],inhibited in a dose-dependent manner
